SMILES strings stand for the structures. Structures can show the parent of a compound that is named as a salt. Where two headings read alike, the source gives them in different places.

The target in assay [1] is glutamate binding site on the kainate/AMPA receptor. Nature of the assay: Inhibition of [3H]-AMPA binding to the glutamate binding site on the kainate/AMPA receptor, rat brain membranes. Conditions: 10 nM ^3 H-AMPA; membrane preparations from rat brain; unspecific binding with 1 mM glutamate; filtration. As to the method:
Carefully washed membrane preparations from rat brain are used for the binding studies. The radioligands are used with concentrations of 20 nM ^3 H-DCKA and, respectively, 10 nM ^3 H-AMPA.
In order to determine the unspecific binding, the corresponding ligands with concentrations of 1 mM glycine and, respectively, 1 mM glutamate are added. Membrane-bound radioligand is separated from non-bound ligands by centrifugation (15 min, at […]; ^3 H-DCKA) or filtration (combination of Whatmann GF/C and GF/B filters; ^3 H-AMPA).
The described substances are used in the binding experiments in different concentrations.

Assay [2] addresses T1, glycine binding site on the NMDA receptor (Rattus norvegicus, UniProt P35439).
T1 construct: membrane preparations from rat brain; from tissue; host or cells: rat brain membranes
Nature of the assay: Inhibition of [3H]-DCKA (3H-5,7-dichlorokynurenic acid) binding to the glycine binding site on the NMDA receptor, rat brain membranes.
Description: In order to determine the unspecific binding, the corresponding ligands with concentrations of 1 mM glycine and, respectively, 1 mM glutamate are added. Membrane-bound radioligand is separated from non-bound ligands by centrifugation (15 min, at 40 000 kg; ^3 H-DCKA) or filtration (combination of Whatmann GF/C and GF/B filters; ^3 H-AMPA).
The described substances are used in the binding experiments in different concentrations. The concentrations which inhibited 50% of the binding were determined on the basis of dosage-activity curves for the inhibition of the binding of the corresponding radioligands.

Setting [3] is: 20 nM ^3 H-DCKA, membrane preparations from rat brain, unspecific binding with 1 mM glycine, centrifugation, read-out: [^3 H]-DCKA IC50.

In general, IC50 refers to the concentration at which inhibition is half-maximal. On to `O=c1[nH]nc2c3ccc(Cl)cc3[nH]c(=O)n12` [Example 3, 8-Chloro-2,3,5,6-tetrahydro-1,2,4-triazolo[4,3-c]quinazoline-3,5-dione], for which the IC50 in assay [1] was determined as 1750 nM; in assay [2] (setting [3]), 432 nM.
On to `O=c1[nH]nc2c3ccc(F)cc3[nH]c(=O)n12` [Example 6, 8-Fluoro-2,3,5,6-tetrahydro-1,2,4-triazolo[4,3-c]quinazoline-3,5-dione], for which the IC50 in assay [1] is 8160 nM; in assay [2] (setting [3]) it was 710 nM.
Take `O=c1[nH]nc2c3ccc(Br)cc3[nH]c(=O)n12` [Example 8, 8-Bromo-2,3,5,6-tetrahydro-1,2,4-triazolo[4,3-c]quinazoline-3,5-dione]: the half-inhibitory concentration (IC50) is 1170 nM in assay [1] and 322 nM in assay [2] (setting [3]).
Consider `O=c1[nH]nc2c3ccc(I)cc3[nH]c(=O)n12` [Example 9, 8-Iodo-2,3,5,6-tetrahydro-1,2,4-triazolo[4,3-c]quinazoline-3,5-dione], for which the IC50 in assay [1] is 1480 nM; in assay [2] (setting [3]) it was 189 nM.
As to `O=c1[nH]nc2c3cc(F)c(Cl)cc3[nH]c(=O)n12` [Example 10, 8-Chloro-9-fluoro-2,3,5,6-tetrahydro-1,2,4-triazolo[4,3-c]quinazoline-3,5-dione], the values for the 50% inhibitory concentration (IC50) in assay [1] and in assay [2] (setting [3]) were 1250 nM and 202 nM, respectively.
`O=c1[nH]nc2c3cc(Cl)c(Cl)cc3[nH]c(=O)n12` [Example 11, 8,9-Dichloro-2,3,5,6-tetrahydro-1,2,4-triazolo[4,3-c]quinazoline-3,5-dione]: the IC50 in assay [1] is 660 nM; in assay [2] (setting [3]), 31 nM.
For `O=c1[nH]nc2c3c(Cl)cc(Cl)cc3[nH]c(=O)n12` [Example 12, 8,10-Dichloro-2,3,5,6-tetrahydro-1,2,4-triazolo[4,3-c]quinazoline-3,5-dione], the IC50 in assay [1] turned out to be 620 nM; in assay [2] (setting [3]) it was 79 nM.
Consider `Cc1cc2[nH]c(=O)n3c(=O)[nH]nc3c2cc1C` [Example 14, 8,9-Dimethyl-2,3,5,6-tetrahydro-1,2,4-triazolo[4,3-c]quinazoline-3,5-dione], for which the IC50 worked out at 2310 nM in assay [1] and 132 nM in assay [2] (setting [3]).
With `COc1ccc2c(c1)[nH]c(=O)n1c(=O)[nH]nc21` [Example 17, 8-Methoxy-2,3,5,6-tetrahydro-1,2,4-triazolo[4,3-c]quinazoline-3,5-dione], the results for the IC50 in assay [1] and in assay [2] (setting [3]) were 2370 nM and 180 nM, respectively.
On to `O=c1[nH]nc2c3ccc([N+](=O)[O-])cc3[nH]c(=O)n12` [Example 21, 8-Nitro-2,3,5,6-tetrahydro-1,2,4-triazolo[4,3-c]quinazoline-3,5-dione], for which the IC50 worked out at 243 nM in assay [1] and 690 nM in assay [2] (setting [3]).
With `O=c1[nH]nc2c3ccc(C(F)(F)F)cc3[nH]c(=O)n12` [Example 23, 8-Trifluoromethyl-2,3,5,6-tetrahydro-1,2,4-triazolo[4,3-c]quinazoline-3,5-dione], the IC50 came to 1010 nM in assay [1] and 379 nM in assay [2] (setting [3]).
Regarding `O=c1[nH]nc2c3cc([N+](=O)[O-])c(Cl)cc3[nH]c(=O)n12` [Example 24, 8-Chloro-9-nitro-2,3,5,6-tetrahydro-1,2,4-triazolo[4,3-c]quinazoline-3,5-dione], the IC50 was 362 nM in assay [1] and 359 nM in assay [2] (setting [3]).
Consider `O=c1[nH]nc2c3cc(Cl)c([N+](=O)[O-])cc3[nH]c(=O)n12` [Example 25, 9-Chloro-8-nitro-2,3,5,6-tetrahydro-1,2,4-triazolo[4,3-c]quinazoline-3,5-dione], for which the IC50 in assay [1] and in assay [2] (setting [3]) was 50 nM each time.
For the molecule `O=c1nc2c3cc(Cl)c([N+](=O)[O-])cc3[nH]c(=O)n2[nH]1` [Example 26, 9-Chloro-8-nitro-1-yl-2,3,5,6-tetrahydro-[1,2,4]triazolo[1,5-c]quinazoline-2,5-dione sodium salt], the IC50 was determined as 82 nM in assay [1] and 43 nM in assay [2] (setting [3]).
The like results for `O=c1[nH]nc2c3cc(F)c([N+](=O)[O-])cc3[nH]c(=O)n12` [Example 27, 9-Fluoro-8-nitro-2,3,5,6-tetrahydro-1,2,4-triazolo[4,3-c]quinazoline-3,5-dione] were, in that order, 189 nM and 360 nM.
On to `Nc1cc2c(cc1Cl)[nH]c(=O)n1c(=O)[nH]nc21` [Example 29, 9-amino-8-chloro-2,3,5,6-tetrahydro-1,2,4-triazolo[4,3-c]quinazoline-3,5-dione hydrochloride], for which the IC50 in assay [1] came to 8590 nM; in assay [2] (setting [3]), 1320 nM.
In the case of `CN(C)c1cc2c(cc1[N+](=O)[O-])[nH]c(=O)n1c(=O)[nH]nc21` [Example 30, 9-Dimethylamino-8-nitro-2,3,5,6-tetrahydro-1,2,4-triazolo[4,3-c]quinazoline-3,5-dione], the IC50 in assay [1] worked out at 47 nM; in assay [2] (setting [3]), 342 nM.
Consider `O=c1[nH]nc2c3cc(N4CCCC4)c([N+](=O)[O-])cc3[nH]c(=O)n12` [Example 32, 8-Nitro-9-pyrrolidin-1-yl-2,3,5,6-tetrahydro-1,2,4-triazolo-[4,3-c]quinazoline-3,5-dione], for which the IC50 amounted to 163 nM in assay [1] and 3600 nM in assay [2] (setting [3]).
Take `O=c1[nH]nc2c3cc(N4CCOCC4)c([N+](=O)[O-])cc3[nH]c(=O)n12` [Example 34, 9-morpholin-4-yl-8-nitro-2,3,5,6-tetrahydro-1,2,4-triazolo[4,3-c]quinazoline-3,5-dione]: the IC50 in assay [1] was found to be 296 nM; in assay [2] (setting [3]), 8540 nM.
Turning to `O=c1nc2c3cc(-n4ccnc4)c([N+](=O)[O-])cc3[nH]c(=O)n2[nH]1` [Example 36, 9-Imidazol-1-yl-8-nitro-2,3,5,6-tetrahydro-[1,2,4]-triazolo[1,5-c]quinazoline-2,5-dione], the values for the IC50 in assay [1] and in assay [2] (setting [3]) were 16 nM and 2560 nM, respectively.
In the case of `O=c1[nH]nc2c3cc([N+](=O)[O-])c([N+](=O)[O-])cc3[nH]c(=O)n12` [Example 37, 8,9-Dinitro-2,3,5,6-tetrahydro-1,2,4-triazolo[4,3-c]quinazoline-3,5-dione], the IC50 in assay [1] stood at 117 nM; in assay [2], 640 nM.
Turning to `O=c1[nH]nc2c3cc(Br)c([N+](=O)[O-])cc3[nH]c(=O)n12` [Example 38, 9-Bromo-8-nitro-2,3,5,6-tetrahydro-1,2,4-triazolo[4,3-c]quinazoline-3,5-dione], the IC50 was 71 nM in assay [1] and 68 nM in assay [2] (setting [3]).
As to `O=c1[nH]ncc2c1c(O)nc1cc(Cl)ccc12` [Example 43, 8-Chloro-5-hydroxy-3,4-dihydro-pyridazino [4,5-c]quinolin-4-one], the IC50 in assay [2] (setting [3]) was 909 nM.
As for `O=c1[nH][nH]c2c1c(O)nc1cc(Cl)ccc12` [Example 48, 7-Chloro-4-hydroxy-2,3-dihydro-1H-pyrazolo[4,3-c]quinolin-3-one], the figures for the IC50 in assay [1] and in assay [2] (setting [3]) were 7310 nM and 193 nM, respectively.
Regarding `O=c1[nH][nH]c2c1c(O)nc1cc(Cl)c(Cl)cc12` [Example 49, 7,8-Dichloro-4-hydroxy-2,3-dihydro-1H-pyrazolo[4,3-c]quinolin-3-one], the results for the IC50 in assay [1] and in assay [2] (setting [3]) were 1370 nM and 73 nM, respectively.
Consider `O=c1[nH]oc2c1c(=O)[nH]c1cc([N+](=O)[O-])ccc12` [Example 55, 7-nitro-2,3,4,5-tetrahydro-isoxazol-[4,5-c]quinoline-3,4-dione], for which the IC50 in assay [1] was 421 nM; in assay [2] (setting [3]) it was 459 nM.
The like results for `O=c1[nH]oc2c1c(=O)[nH]c1cc(Cl)ccc12` [Example 56, 7-Chloro-2,3,4,5-tetrahydro-isoxazolo[4,5-c]quinoline-3,4-dione] were, in that order, 20 nM and 266 nM.
For the molecule `O=c1nc2c3cc(N4CCCC4)c([N+](=O)[O-])cc3[nH]c(=O)n2[nH]1` [sodium salt], the IC50 in assay [1] was 336 nM; in assay [2] (setting [3]) it was 3060 nM.

For the origin of these results see patent US5688803A, “Tricyclic dicarbonyl derivatives” (Hoffmann-La Roche Inc., priority 1994, dated 1997).
